Laboratory results reported in patent US10921324B2, “Compositions and methods related to the methylation of histone H1.0 protein” (Aelan Cell Technologies, Inc., priority 2016, dated 2021).
“Also recorded” adds a separate entry of the source. Ends that are not written are not given here. Me2 = dimethylated (lysine)

Legend:
[1] = system: H1.0K180me2 appearance in SR hADSCs; experiment: Western blot of H1.0K180me2 in hADSCs treated with bleomycin after rapamycin or everolimus pretreatment; format: cell-based, human; settings: 500 nM pretreatment for 24 hours, then bleomycin 2 hours
Description: (§1) Material for western blot analysis (cultured cells or tissue) was lysed in ice-cold RIPA lysis buffer (Thermo Scientific 89900) and sonicated using a Covaris S2 sonicator (10% duty cycle, Intensity 5, Bursts per minute 100, 120 seconds). Total protein concentration in each sample was quantified using Quick Start Bradford 1× Dye Reagent (BioRad, 5000205) following manufacturer's protocol. Samples were then mixed with NuPAGE LDS sample loading buffer (ThermoFisher, NP0007) and NuPAGE sample reducing buffer (ThermoFisher, NP0004), and heat denatured at 70° C. for 10 minutes. Proteins were separated on 4-12% precast polyacrylamide gels (ThermoFisher, NP0321) by electrophoresis and transferred to 0.45 μm nitrocellulose membrane. […] Proteins were detected with HRP secondary antibodies listed above for 1 hour at RT followed by ECL Western Blotting Substrate (ThermoFisher, 32106) using manufacturer's instructions. […]
To test if rapamycin derivatives can block H1.0K180me2 appearance upon DNA damage, SR hADSCs were treated with bleomycin for 2 hours with or without pretreatment with rapamycin or everolimus (a derivative of rapamycin) for 24 hours. Cells were then lysed and analyzed be western blot for H1.0K180me2, γH2A.X and β-Actin, according to methods described in Example 1.

GLP methyltransferase = biological target: T1, GLP methyltransferase (Homo sapiens, UniProt Q9H9B1); experiment: In vitro methylation of K180 dimethylated H1.0 peptide with GLP, products by LC-MS; format: biochemical; settings: K180 dimethylated H1.0 peptide as substrate, only H1.0K180 and H1.0K174 further methylated
T1 construct: purchased Cayman Chemical 10755
T1 sequence (Q9H9B1 1-1298): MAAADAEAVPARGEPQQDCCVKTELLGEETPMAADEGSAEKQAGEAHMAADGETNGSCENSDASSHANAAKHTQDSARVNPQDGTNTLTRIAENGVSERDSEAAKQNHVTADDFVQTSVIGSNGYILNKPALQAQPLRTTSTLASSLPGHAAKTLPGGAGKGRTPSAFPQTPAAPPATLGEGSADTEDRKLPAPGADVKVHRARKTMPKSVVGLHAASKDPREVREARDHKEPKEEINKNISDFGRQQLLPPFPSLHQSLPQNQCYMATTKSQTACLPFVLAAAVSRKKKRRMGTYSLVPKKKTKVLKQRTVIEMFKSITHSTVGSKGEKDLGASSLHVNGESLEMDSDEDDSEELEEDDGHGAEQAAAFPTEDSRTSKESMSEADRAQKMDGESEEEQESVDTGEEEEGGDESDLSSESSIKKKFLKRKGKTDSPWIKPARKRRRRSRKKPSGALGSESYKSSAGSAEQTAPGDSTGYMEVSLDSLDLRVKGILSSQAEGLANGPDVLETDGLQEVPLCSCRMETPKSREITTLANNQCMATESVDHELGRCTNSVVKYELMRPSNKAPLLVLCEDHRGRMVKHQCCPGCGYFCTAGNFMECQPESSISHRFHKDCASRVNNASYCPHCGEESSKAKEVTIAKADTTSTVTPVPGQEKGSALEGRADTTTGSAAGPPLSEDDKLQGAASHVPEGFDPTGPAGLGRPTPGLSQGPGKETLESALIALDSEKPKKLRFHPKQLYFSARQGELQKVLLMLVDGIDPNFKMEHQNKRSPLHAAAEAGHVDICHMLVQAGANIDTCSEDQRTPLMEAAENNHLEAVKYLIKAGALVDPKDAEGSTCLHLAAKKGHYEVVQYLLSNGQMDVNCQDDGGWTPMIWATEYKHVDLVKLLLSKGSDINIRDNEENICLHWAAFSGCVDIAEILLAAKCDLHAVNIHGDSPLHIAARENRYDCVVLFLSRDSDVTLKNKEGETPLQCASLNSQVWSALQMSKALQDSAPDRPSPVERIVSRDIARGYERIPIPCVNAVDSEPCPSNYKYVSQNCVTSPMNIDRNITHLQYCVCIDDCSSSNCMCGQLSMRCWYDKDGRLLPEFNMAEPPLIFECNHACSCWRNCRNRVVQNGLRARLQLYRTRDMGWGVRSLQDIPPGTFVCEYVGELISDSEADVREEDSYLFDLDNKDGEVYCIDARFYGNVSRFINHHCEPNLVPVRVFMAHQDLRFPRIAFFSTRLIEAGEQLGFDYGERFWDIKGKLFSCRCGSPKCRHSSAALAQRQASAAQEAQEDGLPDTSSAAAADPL
Description: In order to identify the precise sites of methylation by G9A and GLP methyltransferases on histone H1.0, in vitro methylation assays were performed and subsequently analyzed by Liquid Chromatography and High-resolution Mass Spectrometry (LC-MS) analysis. Methylation reactions were set up using either G9A methyltransferase (NEB, M0235S, Lot #0031201) or GLP methyltransferase (Cayman Chemical, 10755). The methyl donor in each reaction was unlabeled S-Adenosyl-L-Methionine (NEB, B9003S). […]
(§2) For the Liquid Chromatography and High-resolution Mass Spectrometry (LC-MS) analysis, samples were prepared as described above and about 1 μg o the product was injected onto a Thermo Scientific Easy nLC system configured with a 10 cm×100 um trap column and a 25 cm×100 um ID resolving column. […] This ensured optimal full-scan data for quantification. […]
Protein identification was performed using Thermo Scientific Proteome Discoverer version 1.4 (including Sequest and Percolator algorithms) using RefSeqHuman sequence database. […] Protein quantification was performed using Pinpoint version 1.4 software. The Pinpoint quantification workflow included importing the Proteome Discoverer .msf files as spectral libraries. Identified peptides were subsequently quantified in MS .raw files using the Pinpoint peak finding, chromatographic alignment and area calculation algorithms. […]

G9A methyltransferase = experiment: In vitro methylation of K180me2 H1.0 peptide with G9A, products by LC-MS; format: biochemical
G9A methyltransferase, sequence (Q9Z148 969-1263 limits assumed): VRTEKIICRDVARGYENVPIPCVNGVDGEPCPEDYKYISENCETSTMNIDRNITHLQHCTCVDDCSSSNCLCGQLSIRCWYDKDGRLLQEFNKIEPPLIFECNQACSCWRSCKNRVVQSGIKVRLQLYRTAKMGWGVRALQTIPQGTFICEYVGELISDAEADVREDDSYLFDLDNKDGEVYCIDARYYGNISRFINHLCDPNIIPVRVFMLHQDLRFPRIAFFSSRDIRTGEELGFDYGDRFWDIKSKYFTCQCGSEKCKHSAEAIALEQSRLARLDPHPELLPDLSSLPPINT
Description: In order to identify the precise sites of methylation by G9A and GLP methyltransferases on histone H1.0, in vitro methylation assays were performed and subsequently analyzed by Liquid Chromatography and High-resolution Mass Spectrometry (LC-MS) analysis. Methylation reactions were set up using either G9A methyltransferase (NEB, M0235S, Lot #0031201) or GLP methyltransferase (Cayman Chemical, 10755). The methyl donor in each reaction was unlabeled S-Adenosyl-L-Methionine (NEB, B9003S). The H1.0 substrate in each reaction was either unmodified H1.0 peptide labeled with biotin (ThermoFisher Scientific, Biotin-[…] (SEQ ID NO:69)), di-methylated H1.0 peptide (ThermoFisher Scientific, Biotin-[…]^(me2)PK (SEQ ID NO:70)), or full-length recombinant human H1.0 (NEB, M2501S). Methylation reactions were set up in triplicate for each condition as follows: 1×HMT reaction buffer (50 mM Tris-HCl, 5 mM MgCl2, 4 mM dithiothreitol, pH 9.0); 10U G9A or GLP Methyltransferase; 3.2 mM S-Adenosyl-L-Methionine; 500 ng unmodified or modified H1.0 peptide, or 1 μg full-length protein; final volume 10 μl. As controls, reactions were set up as above but without any methyltransferase present. All reactions were incubated in a thermocycler at 37° C. for 1 hour, and subsequently stopped by incubating on ice for 5 minutes. Samples were frozen at −80° C. prior to LC-MS analysis.
as §2, with “column. Buffer A was 98% water, 2% methanol, and 0.2% formic acid.” for “column.”
Protein identification was performed using Thermo Scientific Proteome Discoverer version 1.4 (including Sequest and Percolator algorithms) using RefSeqHuman sequence database. […] Protein quantification was performed using Pinpoint version 1.4 software. The Pinpoint quantification workflow included importing the Proteome Discoverer .msf files as spectral libraries. Identified peptides were subsequently quantified in MS .raw files using the Pinpoint peak finding, chromatographic alignment and area calculation algorithms.
To further address the sensitivity and specificity of G9A methylation to lysine 180 of H1.0 peptide, the K180me2 peptide (H1.0 AA 165-182) was used as a substrate in similar in vitro methylation experiments. Only minor quantitates of further methylated peptide were detected: H1.0K166me1K180me2 (1.27% of the total peptide in the reaction), H1.0K174me1K180me3 (1.06% of the total peptide in the reaction) and H1.0K174me3K175me3K177me1K180me2 (0.35% of the total peptide in the reaction) as shown in FIG. 9B FIG. 10.

H1.0K180me2 in hADSCs = experiment: Western blot / localization of H1.0K180me2 in hADSCs after bleomycin (acute DNA damage); format: cell-based, human
Description: (§3) For replicative senescence, hADSCs were grown in culture until reaching replicative exhaustion (PD 41-46). For acute DNA damage conditions, SR hADSCs (PD 4-10) were treated with 50μg/ml bloemycin sulfate (Cayman Chemical, 13877) in growth media for 2 hours. For genotoxic stress induced senescence, SR hADSCs (PD 4-10) were treated with 50 μg/ml bloemycin sulfate (Cayman Chemical, 13877) in growth media for 2 hours then washed with PBS and given fresh growth media without bleomycin. Cells were then grown for 3 days before collection.
as §1, with “minutes.” for “minutes. Proteins were separated on 4-12% precast polyacrylamide gels (ThermoFisher, NP0321) by electrophoresis and transferred to 0.45 μm nitrocellulose membrane.”

[2] = system: chromatin bound H1.0 in hADSCs; experiment: LC-MS/MS of soluble and chromatin bound fractions of hADSCs after bleomycin; format: cell-based, human
Description: as §3
SR hADSCs, hADSCs treated with bleomycin for 2 hours (acute DNA damage) and hADSCs treated with bleomycin and allowed to senesce for 3 days (genotoxic stress induced senescence) were lysed and fractionated into soluble and chromatin bound fractions. These fractions were then subjected to LC-MS/MS analysis. Peptide expression levels were taken as the total area under the LC-MS/MS relative intensity curve, and individual peptides were unambiguously assigned to proteins using Pinpoint software, version 1.4 (Thermo Scientific). The areas of all peptides assigned to an individual protein were summed to yield protein expression levels, which were normalized against the total protein library size for each sample. For each cellular fraction, H1.0 peptide abundance is represented as a percentage of total H1.0 peptides observed in each condition. […]

[3] = system: secretion of H1.0K180me2 from hADSCs; experiment: Slot blot of culture media of hADSCs treated with bleomycin; format: cell-based, human
Description: 0.5 μl of serum sample or known amounts of synthesized peptide were diluted in 200 μl TBS. Samples were then heat denatured at 70° C. for 10 minutes before being transferred to nitrocellulose membrane using a vacuum manifold slot blot apparatus (BioRad, 1706542). The membrane was blocked with 5% non-fat milk in PBS-T for 30 minutes at RT then immunoblotted with the above primary antibodies at 4° C. over night. Proteins were detected with HRP secondary antibodies listed above for 1 hour at RT followed by ECL Western Blotting Substrate (ThermoFisher, 32106) using manufacturers instructions. All washes between steps were with PBS-T. Membranes were imaged with Omega LUM-C imaging system (Gel Company). Slot blot bands for each sample were then quantified using ImageJ.
SR hADSCs, hADSCs treated with bleomycin for 2 hours (acute DNA damage) and hADSCs treated with bleomycin and allowed to senesce for 3 days (genotoxic stress induced senescence) were lysed and fractionated into soluble and chromatin bound fractions. These fractions were then subjected to LC-MS/MS analysis. Peptide expression levels were taken as the total area under the LC-MS/MS relative intensity curve, and individual peptides were unambiguously assigned to proteins using Pinpoint software, version 1.4 (Thermo Scientific). The areas of all peptides assigned to an individual protein were summed to yield protein expression levels, which were normalized against the total protein library size for each sample. For each cellular fraction, H1.0 peptide abundance is represented as a percentage of total H1.0 peptides observed in each condition. Normalized absolute values of H1.0 peptide levels in each fraction were also shown. […] Culture media from SR hADSCs treated with bleomycin was collected for slot blot analysis with α-H1.0 and α-H1.0K180me2 antibodies to assess secretion of H1.0 to the extracellular matrix (ECM). The experiment was carried out according to methods described in Example 1. […] This signifies secretion out of the cells.

[4] = K180me2 peptide (H1.0 AA 165-182) as substrate

CO[C@H]1C[C@@H]2CC[C@@H](C)[C@@](O)(O2)C(=O)C(=O)N2CCCC[C@H]2C(=O)O[C@H]([C@H](C)C[C@@H]2CC[C@@H](OCCO)[C@H](OC)C2)CC(=O)[C@H](C)/C=C(\C)[C@@H](O)[C@@H](OC)C(=O)[C@H](C)C[C@H](C)/C=C/C=C/C=C/1C [everolimus]
appearance of H1.0K180me2 upon bleomycin treatment [1]: blocks H1.0K180me2 deposition on chromatin; also recorded: blocks H1.0K180me2 appearance

AKPVKASKPKKAKPVK(me2)PK (chain 1 AKPVKASKPKKAKPVK(Me2)PK; chain 2 AKPVKASKPKKAKPVK(Me2)PK; not fully specified (N-terminus)) [K180 dimethylated H1.0 peptide, H1.0 AA 165-182 peptide dimethylated at K180]
peptides further methylated (GLP methyltransferase): 1.02%
H1.0K166me1K180me2, % of the total peptide in the reaction (G9A methyltransferase; [4]): 1.27%
H1.0K174me1K180me3, % of the total peptide in the reaction (G9A methyltransferase; [4]): 1.06%
H1.0K174me3K175me3K177me1K180me2, % of the total peptide in the reaction (G9A methyltransferase; [4]): 0.35%
peptides further methylated (G9A methyltransferase; dimethylated H1.0 peptide as substrate): 2.64%

bleomycin
localization of H1.0K180me2 (H1.0K180me2 in hADSCs; SR hADSCs treated with bleomycin): H1.0K180me2 localized to the cytoplasm
H1.0K180me2 on chromatin (H1.0K180me2 in hADSCs; bleomycin 50 μg/ml 2 hours, chromatin bound fraction, western blot): methylation of H1.0K180 on the chromatin upon DNA damage; also recorded: H1.0K180me2 is found on chromatin
chromatin bound H1.0, % of total ([2]; acute DNA damage (bleomycin 2 hours)): ~60%
chromatin bound H1.0, % of total ([2]; genotoxic stress induced senescence (bleomycin 2 hours, then 3 days)): ~30%
secreted H1.0K180me2 in cell culture media ([3]; after 24 hours of bleomycin treatment): secreted H1.0K180me2 was also readily detected
time of maximal H1.0K180me2 secretion ([3]; conditioned medium, time course after bleomycin): ≤ 48 h
DFFB secretion ([3]; upon GSI-SEN, starting 48 hours after treatment): increase in DFFB secretion
